Measured values taken from ChEMBL document CHEMBL1149460, “Pharmacokinetics and metabolism studies on (3-tert-butyl-7-(5-methylisoxazol-3-yl)-2-(1-methyl-1H-1,2,4-triazol-5-ylmethoxy) pyrazolo[1,5-d][1,2,4]triazine, a functionally selective GABA(A) alpha5 inverse agonist for cognitive dysfunction” (Bioorg Med Chem Lett, 2006).

Legend:
[1] = Efficacy against human GABA alpha-3 receptor expressed in mouse fibroblast L(tk-) cells by whole cell patch clamp method; format: functional
[2] = molecular target: GABA A receptor alpha-1/beta-1/gamma-2 (Homo sapiens) (UniProt P14867+P18507+P18505); assay: Efficacy against human GABA alpha-1 receptor expressed in mouse fibroblast L(tk-) cells by whole cell patch clamp method; format: functional, cell-based
[3] = Efficacy against human GABA alpha-5 receptor expressed in mouse fibroblast L(tk-) cells by whole cell patch clamp method; format: functional
[4] = molecular target: GABA-A receptor; anion channel (Rattus norvegicus) (UniProt O09028+P15431+P18506+P18508+P19969+P20236+P23574+P23576+P28471+P28473+P30191+P62813+P63079+P63138+Q91ZM7+Q9ES14); assay: Receptor occupancy in vivo by displacement of [3H]Ro 15-1788 binding from rat brain GABAA receptor at 3 mg/kg, ip; format: functional, organism-based; parameters: dose 3 mg/kg
[5] = Binding affinity to GABA alpha5 receptor; parameters: species or system Homo sapiens
[6] = Efficacy against human GABA alpha-2 receptor expressed in mouse fibroblast L(tk-) cells by whole cell patch clamp method; format: functional
[7] = Half life in dog; format: ADME, organism-based, Canis lupus familiaris; conditions: in vivo
[8] = Oral bioavailability in rhesus; format: ADME, organism-based, Macaca mulatta; conditions: rhesus monkey, in vivo
[9] = Half life in rhesus; format: ADME, organism-based, Macaca mulatta; conditions: rhesus monkey, in vivo
[10] = Clearance in rhesus; format: ADME, organism-based, Macaca mulatta; conditions: rhesus monkey, in vivo
[11] = Clearance in dog; format: ADME, organism-based, Canis lupus familiaris; conditions: in vivo
[12] = Clearance in rat; format: ADME, organism-based; conditions: in vivo
[13] = Half life in rat; format: ADME, organism-based; conditions: in vivo

Efficacy [2] [%]	Activity [4] [%]	Ki [5] [nM]	half-life [7] [min]	bioavailability [8] [%]	half-life [9] [min]	clearance [10] [mL/min/kg]	clearance [11] [mL/min/kg]	clearance [12] [mL/min/kg]	half-life [13] [min]	Structure (SMILES)	Efficacy [1] [%]	Efficacy [3] [%]	Efficacy [6] [%]
-41	21	9.4								Cc1cc(-c2nncc3c(C(C)(C)CO)c(OCc4ncnn4C)nn23)no1	-32	-40	-23
-16	> 95	1.4	30	< 2	18	33	39	27	30	Cc1cc(-c2nncc3c(C(C)(C)C)c(OCc4ncnn4C)nn23)no1	-9	-55	6
		> 666								Cc1cc(-c2nnc(O)c3c(C(C)(C)CO)c(OCc4ncnn4C)nn23)no1			
1		700								Cc1cc(-c2nnc(O)c3c(C(C)(C)C)c(OCc4ncnn4C)nn23)no1	-8	-47	0
-45	8	21								Cn1ncnc1COc1nn2c(-c3cc(CO)on3)nncc2c1C(C)(C)CO	-39	-44	-31
		370								Cn1ncnc1COc1nn2c(-c3cc(CO)on3)nnc(O)c2c1C(C)(C)C			
-11	12	1.1								Cn1ncnc1COc1nn2c(-c3cc(CO)on3)nncc2c1C(C)(C)C	-15	-52	-1
